Source: paper PMC10143825, “ABT-333 (Dasabuvir) Increases Action Potential Duration and Provokes Early Afterdepolarizations in Canine Left Ventricular Cells via Inhibition of IKr” (Pharmaceuticals, 2023)

Target: T1, hERG channel (Homo sapiens, UniProt Q12809)
T1 construct: gene KCNH2
Test: cell-based

T1 sequence (Q12809 whole entry): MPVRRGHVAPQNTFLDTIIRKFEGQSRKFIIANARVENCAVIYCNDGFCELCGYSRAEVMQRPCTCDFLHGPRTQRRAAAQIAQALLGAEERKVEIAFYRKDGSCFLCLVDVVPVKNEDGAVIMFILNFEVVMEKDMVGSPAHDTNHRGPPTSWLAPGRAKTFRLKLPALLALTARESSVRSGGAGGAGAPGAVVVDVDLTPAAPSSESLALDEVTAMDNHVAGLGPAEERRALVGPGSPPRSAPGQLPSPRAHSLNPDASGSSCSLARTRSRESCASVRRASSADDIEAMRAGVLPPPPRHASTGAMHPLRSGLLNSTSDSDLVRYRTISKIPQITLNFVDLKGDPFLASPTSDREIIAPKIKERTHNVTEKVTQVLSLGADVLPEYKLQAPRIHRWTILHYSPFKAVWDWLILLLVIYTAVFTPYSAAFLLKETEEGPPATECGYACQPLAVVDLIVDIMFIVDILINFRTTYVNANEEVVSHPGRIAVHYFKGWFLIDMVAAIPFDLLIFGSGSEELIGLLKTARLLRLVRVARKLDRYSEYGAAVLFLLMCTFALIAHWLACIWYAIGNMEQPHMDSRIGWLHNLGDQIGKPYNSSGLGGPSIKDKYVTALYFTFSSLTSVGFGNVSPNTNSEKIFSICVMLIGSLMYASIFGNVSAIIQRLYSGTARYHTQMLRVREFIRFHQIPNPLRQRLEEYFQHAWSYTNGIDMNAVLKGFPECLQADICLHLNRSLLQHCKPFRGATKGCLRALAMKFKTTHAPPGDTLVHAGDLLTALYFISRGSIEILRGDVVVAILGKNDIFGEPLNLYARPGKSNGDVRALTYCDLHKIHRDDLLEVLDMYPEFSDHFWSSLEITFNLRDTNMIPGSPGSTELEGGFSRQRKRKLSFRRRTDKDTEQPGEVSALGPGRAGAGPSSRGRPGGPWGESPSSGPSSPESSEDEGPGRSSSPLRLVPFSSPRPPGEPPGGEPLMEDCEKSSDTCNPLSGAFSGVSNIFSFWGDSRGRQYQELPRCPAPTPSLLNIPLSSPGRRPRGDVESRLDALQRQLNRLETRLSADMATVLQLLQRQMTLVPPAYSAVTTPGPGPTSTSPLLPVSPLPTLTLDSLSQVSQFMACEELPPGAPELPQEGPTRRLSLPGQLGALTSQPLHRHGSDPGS

Question: With COc1c(-c2ccc3cc(NS(C)(=O)=O)ccc3c2)cc(-n2ccc(=O)[nH]c2=O)cc1C(C)(C)C [ABT-333] as the compound, how does the IC50 read?
Answer: 3.2 µM
